Records with an inconclusive call do not appear. The source made the active and inactive calls.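 How the source made its calls: active means EC50 no higher than ten times the top concentration tested; inconclusive means flat fit with growth inhibition between 30% and 70%, or poor fit; inactive means EC50 above ten times the top concentration tested.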
The molecules below were run on C. albicans CaCi-8 + fluconazole, Alamar Blue growth, 48 h (assay: azole-resistant Candida growth inhibition plus fluconazole, SAR follow-up, CaCi-8 strain, Alamar Blue fluorescence (AID 434935)).

Going from Clc1ccc2c(c1)C(c1cccs1)=NNC(c1cccnc1)=N2 to O=C(Nc1nnc(SCc2ccc(Cl)cc2)s1)c1ccc2ccccc2n1, the EC50 rises from less than 0.1 µM to 0.771 µM.

Compared with CCCC(=O)NC(c1ccc(Cl)cc1)c1ccc2cccnc2c1O (centres undefined), CCCC(=O)NC(c1ccccc1)c1ccc2cccnc2c1O (centres undefined) is 1.8-fold higher in EC50: 0.607 µM for the first, 1.11 µM for the second.

First: CC(C)N1CCc2c(sc(NC(=O)c3nc4ccccc4s3)c2C(N)=O)C1
Second: O=C(Nc1sc2c(c1C(=O)c1ccc(Cl)cc1)CCCC2)c1cccnc1
The EC50 of the first is 1.6-fold lower: 0.6 µM for the first, 0.938 µM for the second.

O=C(Nc1nnc(-c2ccc3c(c2)CCCC3)o1)c1ccc(Cl)cc1Cl and COc1ccc(-c2nnc(NC(=O)c3ccc(F)cc3)o2)cc1 are within 1.5-fold of each other in EC50: 0.152 µM for the first, 0.146 µM for the second.

First: Cc1ccc(C(=O)c2coc3c2C(=O)C(=O)c2ccccc2-3)cc1
Second: Cc1ccc(C(=O)Nc2cccc(-c3cn4ccccc4n3)c2)cc1
The EC50 of the first is 12-fold lower: 0.226 µM for the first, 2.77 µM for the second.

First: CC(C)COCc1ccc(O)c2ncccc12
Second: O=C(Oc1c(Cl)cc(Cl)c2cccnc12)c1cccs1
The EC50 of the first is 39-fold higher: 7.46 µM for the first, 0.192 µM for the second. The second is the more potent here.

First: Cc1ccc(Nc2nc(N)c([N+](=O)[O-])c(N3CCC(C)CC3)n2)cc1C
Second: COc1ccc(-n2nc(C(=O)NCC(=O)N3CCN(c4ccccc4)CC3)c3ccccc3c2=O)c(OC)c1
The EC50 of the first is 5.3-fold higher: 6.15 µM for the first, 1.17 µM for the second.

Compared with O=C(Nc1nc(-c2ccccn2)cs1)c1ccc(Br)s1, Nc1nccnc1C(=O)Nc1nnc(SCc2ccc(Cl)cc2)s1 is 1.6-fold lower in EC50: 2.35 µM for the first, 1.43 µM for the second. The second is the more potent here.

Compared with O=C(NNC1=C(C(=O)C(F)(F)F)CCC1)c1ccc(Cl)cc1, CCOC(=O)N1C(=O)C2(CCCCC2)N(c2ccc(C)cc2)C1=S is 5-fold lower in EC50: 6.84 µM for the first, 1.36 µM for the second.

Going from Cc1oc2c(F)c(F)c(F)c(F)c2c1S(=O)(=O)Nc1cccc(C(F)(F)F)c1 to O=c1c2cc(Br)ccc2nc(-c2cccc(C(F)(F)F)c2)n1O, the EC50 falls from 9.31 µM to 3.1 µM (3-fold). The second is the more potent here.

Going from O=C(Nc1nnc(CCc2ccccc2)s1)c1ccco1 to COc1cc2c(cc1NC(=O)c1ccco1)CCCC2, the EC50 falls from 3.11 µM to less than 0.1 µM.

For Cc1nc2ccccc2cc1OCc1ccc(F)cc1, the EC50 was 7.27 µM.

With Cc1ccc(/C=C/C(=O)c2ccccc(=O)c2O)cc1C the EC50 was > 26 µM (inactive).
